In patent publication US11220502B2, “Sulfone compounds and derivatives for the treatment and prophylaxis of virus infection” (Hoffmann-La Roche Inc., priority 2018, dated 2022):
Read-outs that look alike come from different tables or passages of the source.

Target: T1, human TLR7 (Homo sapiens, UniProt Q9NYK1)
T1 sequence (Q9NYK1 27-1049): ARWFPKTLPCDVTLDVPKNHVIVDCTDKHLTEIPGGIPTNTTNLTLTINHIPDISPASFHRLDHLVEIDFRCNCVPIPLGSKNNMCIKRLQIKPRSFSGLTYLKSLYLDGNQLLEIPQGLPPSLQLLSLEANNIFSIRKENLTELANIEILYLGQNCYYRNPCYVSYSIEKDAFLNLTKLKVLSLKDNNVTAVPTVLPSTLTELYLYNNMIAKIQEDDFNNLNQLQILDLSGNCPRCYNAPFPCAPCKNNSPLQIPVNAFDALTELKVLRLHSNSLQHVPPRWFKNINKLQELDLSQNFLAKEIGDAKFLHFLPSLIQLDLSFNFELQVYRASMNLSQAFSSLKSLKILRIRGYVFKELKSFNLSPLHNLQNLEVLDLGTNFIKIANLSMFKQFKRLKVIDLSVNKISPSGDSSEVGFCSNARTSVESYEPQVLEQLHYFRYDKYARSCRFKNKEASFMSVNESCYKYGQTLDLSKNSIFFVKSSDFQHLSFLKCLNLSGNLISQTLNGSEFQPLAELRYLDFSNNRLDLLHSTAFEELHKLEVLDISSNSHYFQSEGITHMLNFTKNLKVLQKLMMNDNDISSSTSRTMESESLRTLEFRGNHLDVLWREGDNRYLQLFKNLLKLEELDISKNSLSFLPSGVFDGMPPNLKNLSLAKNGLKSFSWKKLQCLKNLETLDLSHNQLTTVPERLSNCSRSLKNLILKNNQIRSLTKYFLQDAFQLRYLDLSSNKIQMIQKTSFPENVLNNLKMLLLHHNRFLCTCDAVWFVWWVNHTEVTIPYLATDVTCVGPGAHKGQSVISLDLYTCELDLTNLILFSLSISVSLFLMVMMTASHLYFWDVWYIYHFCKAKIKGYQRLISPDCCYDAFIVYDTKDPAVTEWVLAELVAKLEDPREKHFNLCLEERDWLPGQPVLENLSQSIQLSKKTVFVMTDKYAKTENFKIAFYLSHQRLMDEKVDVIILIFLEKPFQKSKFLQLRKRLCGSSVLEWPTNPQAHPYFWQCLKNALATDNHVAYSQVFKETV
Assay: HEK293-Blue-hTLR-7 cells assay (SEAP reporter, NF-κB activation)
Format: cell-based
Conditions: for EC50: HEK293-Blue-hTLR-7 cells, 20 hrs incubation, SEAP reporter; for Ratio (EC50(prodrug)/EC50(active form)): calculated ratio of prodrug EC50 to EC50 of corresponding active form
From the text: HEK293-Blue-hTLR-7 Cells Assay
A stable HEK293-Blue-hTLR-7 cell line was purchased from InvivoGen (Cat. #: hkb-ht1r7, San Diego, Calif., USA). These cells were designed for studying the stimulation of human TLR7 by monitoring the activation of NF-κB. A SEAP (secreted embryonic alkaline phosphatase) reporter gene was placed under the control of the IFN-β minimal promoter fused to five NF-κB and AP-1-binding sites. The SEAP was induced by activating NF-κB and AP-1 via stimulating HEK-Blue hTLR7 cells with TLR7 ligands. Therefore the reporter expression was regulated by the NF-κB promoter upon stimulation of human TLR7 for 20 hrs. The cell culture supernatant SEAP reporter activity was determined using QUANTI-Blue™ kit (Cat. #: rep-qb1, Invivogen, San Diego, Calif., USA) at a wavelength of 640 nm, a detection medium that turns purple or blue in the presence of alkaline phosphatase.
HEK293-Blue-hTLR7 cells were incubated at a density of 250,000˜450,000 cells/mL in a volume of 180 μL in a 96-well plate in Dulbecco's Modified Eagle's medium (DMEM) containing 4.5 g/L glucose, 50 U/mL penicillin, […], […], 2 mM L-glutamine, 10% (V/V) heat-inactivated fetal bovine serum for 24 hrs. Then the HEK293-Blue-hTLR-7 cells were incubated with addition of 20 μL test compound in a serial dilution in the presence of final DMSO at 1% and perform incubation under 37° C. in a CO2 incubator for 20 hrs. Then 20 μL of the supernatant from each well was incubated with 180 μL Quanti-blue substrate solution at 37° C. for 2 hrs and the absorbance was read at 620˜655 nm using a spectrophotometer. The signalling pathway that TLR7 activation leads to downstream NF-κB activation has been widely accepted, and therefore similar reporter assay was also widely used for evaluating TLR7 agonist (Tsuneyasu Kaisho and Takashi Tanaka, Trends in Immunology, Volume 29, Issue 7, July 2008, […]; Hiroaki Hemmi et al, Nature Immunology 3, 196-200 (2002)).
The Compounds and Examples of the present invention were tested in HEK293-hTLR-7 assay for their TLR7 agonism activity as described herein and results are listed in Table 1. […] The calculated ratio of EC50(prodrug)/EC50(active form) were within the range from 27.7 to about 8233.

[1] = corresponding active form, read-out: HEK293-hTLR-7 EC50 (Active form)
[2] = prodrug, read-out: HEK293-hTLR-7 EC50 (Prodrug)

CCCS(=O)(=O)c1nc(N)c2[nH]c(=O)n(Cc3ccccc3)c2n1 [Compound 1a, 6-amino-9-benzyl-2-propylsulfonyl-7H-purin-8-one]
EC50 [1]: 0.075 µM

CCS(=O)(=O)c1nc(N)c2[nH]c(=O)n(Cc3ccccc3)c2n1 [Compound 3a, 6-amino-9-benzyl-2-ethylsulfonyl-7H-purin-8-one]
EC50 [1]: 0.17 µM

CCCS(=O)(=O)c1nc(N)c2[nH]c(=O)n(Cc3ccc(Cl)cc3)c2n1 [Compound 6a, 6-amino-9-[(4-chlorophenyl)methyl]-2-propylsulfonyl-7H-purin-8-one]
EC50 [1]: 0.021 µM

CCCS(=O)(=O)c1nc(N)c2[nH]c(=O)n(Cc3ccc(C)cc3)c2n1 [Compound 12a, 6-amino-2-(propylsulfonyl)-9-(p-tolylmethyl)-7H-purin-8-one]
EC50 [1]: 0.065 µM

CCS(=O)(=O)c1nc(N)c2[nH]c(=O)n(Cc3ccc(C)cc3)c2n1 [Compound 14a, 6-amino-2-ethylsulfonyl-9-(p-tolylmethyl)-7H-purin-8-one]
EC50 [1]: 0.065 µM

CCS(=O)(=O)c1nc(N)c2[nH]c(=O)n(Cc3ccc(F)cc3)c2n1 [Compound 18a, 6-Amino-2-ethylsulfonyl-9-[(4-fluorophenyl)methyl]-7H-purin-8-one]
EC50 [1]: 0.06 µM

CCS(=O)(=O)c1nc(N)c2[nH]c(=O)n(Cc3ccc(F)cc3)c2n1 [Compound 20a, 6-Amino-2-ethylsulfonyl-9-[(4-fluorophenyl)methyl]-7H-purin-8-one]
EC50 [1]: 0.008 µM

CCS(=O)(=O)c1nc(N)c2[nH]c(=O)n(Cc3ccc(Br)cc3)c2n1 [Compound 22a, 6-Amino-2-ethylsulfonyl-9-[(4-bromophenyl)methyl]-7H-purin-8-one]
EC50 [1]: 0.023 µM

CCCS(=O)(=O)c1nc(N)c2c(n1)n(Cc1ccccc1)c(=O)n2C(=O)N(C)CC [Example 1, 6-Amino-9-benzyl-N-ethyl-N-methyl-8-oxo-2-propylsulfonyl-purine-7-carboxamide]
EC50 [2]: 10.9 µM
Ratio (EC50(prodrug)/EC50(active form)): 145.3

CCCN(C)C(=O)n1c(=O)n(Cc2ccccc2)c2nc(S(=O)(=O)CCC)nc(N)c21 [Example 2, 6-Amino-9-benzyl-N-methyl-8-oxo-N-propyl-2-propylsulfonyl-purine-7-carboxamide]
EC50 [2]: 6.5 µM
Ratio (EC50(prodrug)/EC50(active form)): 86.7

CCN(C)C(=O)n1c(=O)n(Cc2ccccc2)c2nc(S(=O)(=O)CC)nc(N)c21 [Example 3, 6-Amino-9-benzyl-N-ethyl-2-ethylsulfonyl-N-methyl-8-oxo-purine-7-carboxamide]
EC50 [2]: 104 µM
Ratio (EC50(prodrug)/EC50(active form)): 614.1

CCCN(C)C(=O)n1c(=O)n(Cc2ccccc2)c2nc(S(=O)(=O)CC)nc(N)c21 [Example 4, 6-Amino-9-benzyl-2-ethylsulfonyl-N-methyl-8-oxo-N-propyl-purine-7-carboxamide]
EC50 [2]: 87.5 µM
Ratio (EC50(prodrug)/EC50(active form)): 514.7

CCS(=O)(=O)c1nc(N)c2c(n1)n(Cc1ccccc1)c(=O)n2C(=O)N1CCCC1 [Example 5, 6-Amino-9-benzyl-2-ethylsulfonyl-7-(pyrrolidine-1-carbonyl)purin-8-one]
EC50 [2]: 29.7 µM
Ratio (EC50(prodrug)/EC50(active form)): 174.7

CCCN(C)C(=O)n1c(=O)n(Cc2ccc(Cl)cc2)c2nc(S(=O)(=O)CCC)nc(N)c21 [Example 6, 6-Amino-9-[(4-chlorophenyl)methyl]-N-methyl-8-oxo-N-propyl-2-propylsulfonyl-purine-7-carboxamide]
EC50 [2]: 2.6 µM
Ratio (EC50(prodrug)/EC50(active form)): 123.8

CCCS(=O)(=O)c1nc(N)c2c(n1)n(Cc1ccc(Cl)cc1)c(=O)n2C(=O)N(C)CC [Example 7, 6-Amino-9-[(4-chlorophenyl)methyl]-N-ethyl-N-methyl-8-oxo-2-propylsulfonyl-purine-7-carboxamide]
EC50 [2]: 3.2 µM
Ratio (EC50(prodrug)/EC50(active form)): 152.4

CCN(C)C(=O)n1c(=O)n(Cc2ccc(Cl)cc2)c2nc(S(=O)(=O)CC)nc(N)c21 [Example 9, 6-Amino-9-[(4-chlorophenyl)methyl]-N-ethyl-2-ethylsulfonyl-N-methyl-8-oxo-purine-7-carboxamide]
EC50 [2]: 18.2 µM
Ratio (EC50(prodrug)/EC50(active form)): 219.3

CCS(=O)(=O)c1nc(N)c2c(n1)n(Cc1ccc(Cl)cc1)c(=O)n2C(=O)N(C)C [Example 10, 6-Amino-9-[(4-chlorophenyl)methyl]-2-ethylsulfonyl-N,N-dimethyl-8-oxo-purine-7-carboxamide]
EC50 [2]: 2.3 µM
Ratio (EC50(prodrug)/EC50(active form)): 27.7

CCS(=O)(=O)c1nc(N)c2c(n1)n(Cc1ccc(Cl)cc1)c(=O)n2C(=O)N(C)CCOC [Example 11, 6-Amino-9-[(4-chlorophenyl)methyl]-2-ethylsulfonyl-N-(2-methoxyethyl)-N-methyl-8-oxo-purine-7-carboxamide]
EC50 [2]: 10.1 µM
Ratio (EC50(prodrug)/EC50(active form)): 121.7

CCCN(C)C(=O)n1c(=O)n(Cc2ccc(C)cc2)c2nc(S(=O)(=O)CCC)nc(N)c21 [Example 12, 6-Amino-N-methyl-8-oxo-N-propyl-2-propylsulfonyl-9-(p-tolylmethyl)purine-7-carboxamide]
EC50 [2]: 3.3 µM
Ratio (EC50(prodrug)/EC50(active form)): 50.8

CCCS(=O)(=O)c1nc(N)c2c(n1)n(Cc1ccc(C)cc1)c(=O)n2C(=O)N(C)CC [Example 13, 6-Amino-N-ethyl-N-methyl-8-oxo-2-propylsulfonyl-9-(p-tolylmethyl)purine-7-carboxamide]
EC50 [2]: 9.6 µM
Ratio (EC50(prodrug)/EC50(active form)): 147.7

CCCN(C)C(=O)n1c(=O)n(Cc2ccc(C)cc2)c2nc(S(=O)(=O)CC)nc(N)c21 [Example 14, 6-Amino-2-ethylsulfonyl-N-methyl-8-oxo-N-propyl-9-(p-tolylmethyl)purine-7-carboxamide]
EC50 [2]: 68.5 µM
Ratio (EC50(prodrug)/EC50(active form)): 1053

CCN(CC)C(=O)n1c(=O)n(Cc2ccc(C)cc2)c2nc(S(=O)(=O)CC)nc(N)c21 [Example 15, 6-Amino-N,N-diethyl-2-ethylsulfonyl-8-oxo-9-(p-tolylmethyl)purine-7-carboxamide]
EC50 [2]: 5.6 µM
Ratio (EC50(prodrug)/EC50(active form)): 86.2

CCN(C)C(=O)n1c(=O)n(Cc2ccc(C)cc2)c2nc(S(=O)(=O)CC)nc(N)c21 [Example 16, 6-Amino-N-ethyl-2-ethylsulfonyl-N-methyl-8-oxo-9-(p-tolylmethyl)purine-7-carboxamide]
EC50 [2]: 43.9 µM
Ratio (EC50(prodrug)/EC50(active form)): 445.9

CCS(=O)(=O)c1nc(N)c2c(n1)n(Cc1ccc(C)cc1)c(=O)n2C(=O)N1CCCC1 [Example 17, 6-Amino-2-ethylsulfonyl-9-(p-tolylmethyl)-7-(pyrrolidine-1-carbonyl)purin-8-one]
EC50 [2]: 67 µM
Ratio (EC50(prodrug)/EC50(active form)): 1030.8

CCCN(C)C(=O)n1c(=O)n(Cc2ccc(F)cc2)c2nc(S(=O)(=O)CC)nc(N)c21 [Example 18, 6-Amino-2-ethylsulfonyl-9-[(4-fluorophenyl)methyl]-N-methyl-8-oxo-N-propyl-purine-7-carboxamide]
EC50 [2]: 2.4 µM
Ratio (EC50(prodrug)/EC50(active form)): 40
